These results are taken from patent US8252737B2, “Antimicrobial peptides and methods of use” (priority 2004, dated 2012).

The nature of the data set: RP-HPLC temperature profiling (hydrophobicity and self-association/dimerization parameter PA). Type of data set: physicochemical. As to conditions: for tR (min) 5° C.: RP-HPLC retention time at 5° C. during temperature profiling (measure of hydrophobicity); for tR (min) 80° C.: RP-HPLC retention time at 80° C. during temperature profiling; for tR (min) Max: maximal RP-HPLC retention time during temperature profiling 5-80° C.; for PA (min) association parameter: maximal retention time difference relative to control peptide C within 5-80° C.; for ΔtR (X-NVL) (min) 5° C.: retention time difference relative to native peptide V681 (NVL) at 5° C.; for ΔtR (X-NVL) (min) 5° C. / ΔtR (X-NVL) (min) 80° C. / ΔtR (X-PSL) (min) 5° C. / ΔtR (X-PSL) (min) 80° C.: relative hydrophobicity; for ΔtR (X-NVL) (min) 80° C.: retention time difference relative to native peptide V681 (NVL) at 80° C.; for ΔtR (X-PSL) (min) 5° C. / ΔtR (X-PSL) (min) 80° C.: polar face substitutions; for ΔtR (X-PSL) (min) 5° C.: retention time difference relative to native peptide V681 (PSL) at 5° C.; for ΔtR (X-PSL) (min) 80° C.: retention time difference relative to native peptide V681 (PSL) at 80° C. The method, boiled down: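 RP-HPLC retention times recorded over temperature profiling from 5°C to 80°C, with retention relative to native V681 at each limit used as hydrophobicity. Self-association parameter PA defined as the maximal change in retention time from 5°C, after subtracting that of monomeric random-coil control peptide C.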

Square brackets hold non-standard residues; d marks the D form. Peptide text beside a SMILES is read from it.

Consider `CC[C@H](C)[C@H](NC(=O)[C@H](C)NC(=O)[C@H](CCCCN)NC(=O)[C@H](CC(C)C)NC(=O)[C@H](C)NC(=O)[C@@H](NC(=O)[C@H](Cc1c[nH]cn1)NC(=O)[C@H](CC(C)C)NC(=O)[C@@H](NC(=O)[C@@H](NC(=O)[C@H](CCCCN)NC(=O)[C@H](C)NC(=O)[C@H](C)NC(=O)[C@H](CO)NC(=O)[C@H](CCCCN)NC(=O)[C@H](Cc1ccccc1)NC(=O)[C@@H](NC(=O)[C@H](CCCCN)NC(=O)[C@H](CC(C)C)NC(=O)[C@H](Cc1ccccc1)NC(=O)[C@H](CO)NC(=O)[C@H](CCCCN)NC(=O)[C@H](Cc1c[nH]c2ccccc12)NC(=O)[C@H](CCCCN)NC(C)=O)[C@@H](C)O)[C@@H](C)O)C(C)C)[C@@H](C)O)C(=O)N[C@@H](CO)C(=O)N[C@@H](CO)C(N)=O` [NAL], for which the “tR (min) 5° C.” value was determined as 43.94 min, the “tR (min) 80° C.” value stood at 41.38 min, the “tR (min) Max” value came out at 44.88 min and the “PA (min) association parameter” value is listed as 2.59 min. The “decrease in hydrophobicity relative to NVL (V681)” value (RP-HPLC retention time difference at 80° C., non-polar face substitutions) is -4.45 min. Where the note is “non-polar face substitutions”, the “ΔtR (X-NVL) (min) 5° C.” value was -4.16 min and the “ΔtR (X-NVL) (min) 80° C.” value was -4.45 min.

In the case of `CC[C@H](C)[C@H](NC(=O)[C@H](C)NC(=O)[C@H](CCCCN)NC(=O)[C@H](CC(C)C)NC(=O)[C@H](C)NC(=O)[C@@H](NC(=O)[C@H](Cc1c[nH]cn1)NC(=O)[C@H](CC(C)C)NC(=O)[C@@H](NC(=O)[C@@H](NC(=O)[C@H](CCCCN)NC(=O)[C@@H](CCCCN)NC(=O)[C@H](C)NC(=O)[C@H](CO)NC(=O)[C@H](CCCCN)NC(=O)[C@H](Cc1ccccc1)NC(=O)[C@@H](NC(=O)[C@H](CCCCN)NC(=O)[C@H](CC(C)C)NC(=O)[C@H](Cc1ccccc1)NC(=O)[C@H](CO)NC(=O)[C@H](CCCCN)NC(=O)[C@H](Cc1c[nH]c2ccccc12)NC(=O)[C@H](CCCCN)NC(C)=O)[C@@H](C)O)[C@@H](C)O)C(C)C)[C@@H](C)O)C(=O)N[C@@H](CO)C(=O)N[C@@H](CO)C(N)=O` [NKD], the “tR (min) 5° C.” value amounted to 34.05 min, the “tR (min) 80° C.” value stood at 30.96 min, the “tR (min) Max” value turned out to be 34.05 min and the “PA (min) association parameter” value stood at 1.10 min. Also, for the setting “non-polar face substitutions”, the “ΔtR (X-NVL) (min) 5° C.” value is -14.05 min and the “ΔtR (X-NVL) (min) 80° C.” value is -14.87 min.

Turning to `CC[C@H](C)[C@H](NC(=O)[C@H](C)NC(=O)[C@H](CCCCN)NC(=O)[C@H](CC(C)C)NC(=O)[C@H](C)NC(=O)[C@@H](NC(=O)[C@H](Cc1c[nH]cn1)NC(=O)[C@H](CC(C)C)NC(=O)[C@@H](NC(=O)[C@@H](NC(=O)[C@H](CCCCN)NC(=O)[C@@H](CO)NC(=O)[C@H](C)NC(=O)[C@H](CO)NC(=O)[C@H](CCCCN)NC(=O)[C@H](Cc1ccccc1)NC(=O)[C@@H](NC(=O)[C@H](CCCCN)NC(=O)[C@H](CC(C)C)NC(=O)[C@H](Cc1ccccc1)NC(=O)[C@H](CO)NC(=O)[C@H](CCCCN)NC(=O)[C@H](Cc1c[nH]c2ccccc12)NC(=O)[C@H](CCCCN)NC(C)=O)[C@@H](C)O)[C@@H](C)O)C(C)C)[C@@H](C)O)C(=O)N[C@@H](CO)C(=O)N[C@@H](CO)C(N)=O` [NSD] (Ac-KWKSFLKTFKSA[dS]KTVLHTALKAISS-NH2), the “tR (min) 5° C.” value was 37.02 min, the “tR (min) 80° C.” value came out at 34.08 min, the “tR (min) Max” value amounted to 37.12 min and the “PA (min) association parameter” value was 1.46 min. Also, for the setting “non-polar face substitutions”, the “ΔtR (X-NVL) (min) 5° C.” value was -11.08 min and the “ΔtR (X-NVL) (min) 80° C.” value was -11.75 min.

Take `CC[C@H](C)[C@H](NC(=O)[C@H](C)NC(=O)[C@H](CCCCN)NC(=O)[C@H](CC(C)C)NC(=O)[C@H](C)NC(=O)[C@@H](NC(=O)[C@H](Cc1c[nH]cn1)NC(=O)[C@H](CC(C)C)NC(=O)[C@@H](NC(=O)[C@@H](NC(=O)[C@H](CCCCN)NC(=O)[C@H](NC(=O)[C@H](C)NC(=O)[C@H](CO)NC(=O)[C@H](CCCCN)NC(=O)[C@H](Cc1ccccc1)NC(=O)[C@@H](NC(=O)[C@H](CCCCN)NC(=O)[C@H](CC(C)C)NC(=O)[C@H](Cc1ccccc1)NC(=O)[C@H](CO)NC(=O)[C@H](CCCCN)NC(=O)[C@H](Cc1c[nH]c2ccccc12)NC(=O)[C@H](CCCCN)NC(C)=O)[C@@H](C)O)C(C)C)[C@@H](C)O)C(C)C)[C@@H](C)O)C(=O)N[C@@H](CO)C(=O)N[C@@H](CO)C(N)=O` [NVD]: the “tR (min) 5° C.” value was 42.55 min, the “tR (min) 80° C.” value is on record as 40.15 min, the “tR (min) Max” value is 43.43 min and the “PA (min) association parameter” value is 2.63 min. Under “non-polar face substitutions”, the “ΔtR (X-NVL) (min) 5° C.” value is -5.55 min and the “ΔtR (X-NVL) (min) 80° C.” value is -5.68 min.

`CC[C@H](C)[C@H](NC(=O)[C@H](C)NC(=O)[C@H](CCCCN)NC(=O)[C@H](CC(C)C)NC(=O)[C@H](C)NC(=O)[C@@H](NC(=O)[C@H](Cc1c[nH]cn1)NC(=O)[C@H](CC(C)C)NC(=O)[C@@H](NC(=O)[C@@H](NC(=O)[C@H](CCCCN)NC(=O)[C@@H](NC(=O)[C@H](C)NC(=O)[C@@H](C)NC(=O)[C@H](CCCCN)NC(=O)[C@H](Cc1ccccc1)NC(=O)[C@@H](NC(=O)[C@H](CCCCN)NC(=O)[C@H](CC(C)C)NC(=O)[C@H](Cc1ccccc1)NC(=O)[C@H](CO)NC(=O)[C@H](CCCCN)NC(=O)[C@H](Cc1c[nH]c2ccccc12)NC(=O)[C@H](CCCCN)NC(C)=O)[C@@H](C)O)C(C)C)[C@@H](C)O)C(C)C)[C@@H](C)O)C(=O)N[C@@H](CO)C(=O)N[C@@H](CO)C(N)=O` [PAD] (Ac-KWKSFLKTFK[dA]AVKTVLHTALKAISS-NH2): the “tR (min) 5° C.” value came to 45.19 min, the “tR (min) 80° C.” value amounted to 42.57 min, the “tR (min) Max” value stood at 46.36 min and the “PA (min) association parameter” value is given as 2.82 min. The “ΔtR (X-PSL) (min) 5° C.” value is -2.91 min and the “ΔtR (X-PSL) (min) 80° C.” value was -3.26 min.

For `CC[C@H](C)[C@H](NC(=O)[C@H](C)NC(=O)[C@H](CCCCN)NC(=O)[C@H](CC(C)C)NC(=O)[C@H](C)NC(=O)[C@@H](NC(=O)[C@H](Cc1c[nH]cn1)NC(=O)[C@H](CC(C)C)NC(=O)[C@@H](NC(=O)[C@@H](NC(=O)[C@H](CCCCN)NC(=O)[C@@H](NC(=O)[C@H](C)NC(=O)[C@@H](CCCCN)NC(=O)[C@H](CCCCN)NC(=O)[C@H](Cc1ccccc1)NC(=O)[C@@H](NC(=O)[C@H](CCCCN)NC(=O)[C@H](CC(C)C)NC(=O)[C@H](Cc1ccccc1)NC(=O)[C@H](CO)NC(=O)[C@H](CCCCN)NC(=O)[C@H](Cc1c[nH]c2ccccc12)NC(=O)[C@H](CCCCN)NC(C)=O)[C@@H](C)O)C(C)C)[C@@H](C)O)C(C)C)[C@@H](C)O)C(=O)N[C@@H](CO)C(=O)N[C@@H](CO)C(N)=O` [PKD] (Ac-KWKSFLKTFK[dK]AVKTVLHTALKAISS-NH2), the “tR (min) 5° C.” value is on record as 42.20 min, the “tR (min) 80° C.” value is given as 39.29 min, the “tR (min) Max” value was 42.87 min and the “PA (min) association parameter” value is given as 2.23 min. Besides, the “ΔtR (X-PSL) (min) 5° C.” value is -5.90 min and the “ΔtR (X-PSL) (min) 80° C.” value was -6.54 min.

Take `CC[C@H](C)[C@H](NC(=O)[C@H](C)NC(=O)[C@H](CCCCN)NC(=O)[C@H](CC(C)C)NC(=O)[C@H](C)NC(=O)[C@@H](NC(=O)[C@H](Cc1c[nH]cn1)NC(=O)[C@H](CC(C)C)NC(=O)[C@@H](NC(=O)[C@@H](NC(=O)[C@H](CCCCN)NC(=O)[C@@H](NC(=O)[C@H](C)NC(=O)[C@@H](CC(C)C)NC(=O)[C@H](CCCCN)NC(=O)[C@H](Cc1ccccc1)NC(=O)[C@@H](NC(=O)[C@H](CCCCN)NC(=O)[C@H](CC(C)C)NC(=O)[C@H](Cc1ccccc1)NC(=O)[C@H](CO)NC(=O)[C@H](CCCCN)NC(=O)[C@H](Cc1c[nH]c2ccccc12)NC(=O)[C@H](CCCCN)NC(C)=O)[C@@H](C)O)C(C)C)[C@@H](C)O)C(C)C)[C@@H](C)O)C(=O)N[C@@H](CO)C(=O)N[C@@H](CO)C(N)=O` [PLD] (Ac-KWKSFLKTFK[dL]AVKTVLHTALKAISS-NH2): the “tR (min) 5° C.” value turned out to be 44.73 min, the “tR (min) 80° C.” value is listed as 42.14 min, the “tR (min) Max” value is listed as 45.85 min and the “PA (min) association parameter” value is listed as 2.82 min. In addition, the “ΔtR (X-PSL) (min) 5° C.” value is -3.37 min and the “ΔtR (X-PSL) (min) 80° C.” value was -3.69 min.

Turning to `CC[C@H](C)[C@H](NC(=O)[C@H](C)NC(=O)[C@H](CCCCN)NC(=O)[C@H](CC(C)C)NC(=O)[C@H](C)NC(=O)[C@@H](NC(=O)[C@H](Cc1c[nH]cn1)NC(=O)[C@H](CC(C)C)NC(=O)[C@@H](NC(=O)[C@@H](NC(=O)[C@H](CCCCN)NC(=O)[C@@H](NC(=O)[C@H](C)NC(=O)[C@@H](CO)NC(=O)[C@H](CCCCN)NC(=O)[C@H](Cc1ccccc1)NC(=O)[C@@H](NC(=O)[C@H](CCCCN)NC(=O)[C@H](CC(C)C)NC(=O)[C@H](Cc1ccccc1)NC(=O)[C@H](CO)NC(=O)[C@H](CCCCN)NC(=O)[C@H](Cc1c[nH]c2ccccc12)NC(=O)[C@H](CCCCN)NC(C)=O)[C@@H](C)O)C(C)C)[C@@H](C)O)C(C)C)[C@@H](C)O)C(=O)N[C@@H](CO)C(=O)N[C@@H](CO)C(N)=O` [PSD], the “tR (min) 5° C.” value is listed as 45.47 min, the “tR (min) 80° C.” value is 42.59 min, the “tR (min) Max” value is recorded as 46.60 min and the “PA (min) association parameter” value is 2.73 min. Further, the “ΔtR (X-PSL) (min) 5° C.” value is -2.63 min and the “ΔtR (X-PSL) (min) 80° C.” value was -3.24 min.
